According to US9796672B2, “Isoindoline compositions and methods for treating neurodegenerative disease” (Cognition Therapeutics, Inc., priority 2014, dated 2017):

What was measured:
Sigma-1 receptor = Sigma-1 receptor competitive radioligand binding assay; details: read-out: Sigma-1 Receptor Affinity, Ki
Description: Radioligand binding assays for Sigma-1 receptors and Sigma-2 receptors were carried out by a commercial contract research organization. For Sigma-1 binding, various concentrations of test compounds from 100 μM to 1 nM were used to displace 8 nM [^3H](+)pentazocine from endogenous receptors on Jurkat cell membranes (Ganapathy M E et al. 1991, J Pharmacol. Exp. Ther. 289:251-260). 10 μM Haloperidol was used to define non-specific binding. […] 10 μM Haloperidol was used to define non-specific binding. Reactions were terminated by rapid filtration through Whatman GF/C filters using a Brandel 12R cell harvester followed by two washes with ice-cold buffer. Radioactivity on the dried filter discs was measured using a liquid scintillation analyzer (Tri-Carb 2900TR; PerkinElmer Life and Analytical Sciences). The displacement curves were plotted and the Ki values of the test ligands for the receptor subtypes were determined using GraphPad Prism (GraphPad Software Inc., San Diego, Calif.). The percentage specific binding was determined by dividing the difference between total bound (disintegrations per minute) and nonspecific bound (disintegrations per minute) by the total bound (disintegrations per minute).

Sigma-2 receptor = Sigma-2 receptor competitive radioligand binding assay; design: species or system rat; details: read-out: Sigma-2 Receptor Affinity, Ki
[1] = Mouse liver microsome (MLM) stability; type: in vitro ADME
Description: A first pharmacokinetic study was performed in microsomes of mice mouse liver microsomes, MLM) by a commercial contract research organization. The studies were performed according to Obach, R. S et al. (1997) J. Pharmacol. Exp. Ther., 283: 46-58, which is incorporated herein by reference.

potassium channel hERG = potassium channel hERG (Homo sapiens (Human), UniProt Q12809); test: In vitro toxicity, hERG inhibition; type: biochemical
Description: In vitro toxicity for Test Compounds is tested in a number of standard assays.

neuronal cultures = test: Functional neuronal phenotype in neuronal cultures; type: cell-based; design: key: Antagonist: antagonists (block Abeta signaling); Agonist: agonists (block Abeta signaling with U-shaped dose-response curve and toxicity at high doses); Inactive: inactive (no effect in neuronal cultures)
Description: Neuronal cultures are treated with various concentrations of sigma compounds for 24 hours and nuclear intensity compared to vehicle is measured.

[2] = tested on: Abeta oligomer-induced membrane trafficking deficits in primary hippocampal neurons; test: Membrane trafficking/exocytosis (MTT) assay; details: read-out: Membrane Trafficking EC50; compound dosed prior to Abeta oligomer addition

Chain of potassium channel hERG (Q12809 whole entry): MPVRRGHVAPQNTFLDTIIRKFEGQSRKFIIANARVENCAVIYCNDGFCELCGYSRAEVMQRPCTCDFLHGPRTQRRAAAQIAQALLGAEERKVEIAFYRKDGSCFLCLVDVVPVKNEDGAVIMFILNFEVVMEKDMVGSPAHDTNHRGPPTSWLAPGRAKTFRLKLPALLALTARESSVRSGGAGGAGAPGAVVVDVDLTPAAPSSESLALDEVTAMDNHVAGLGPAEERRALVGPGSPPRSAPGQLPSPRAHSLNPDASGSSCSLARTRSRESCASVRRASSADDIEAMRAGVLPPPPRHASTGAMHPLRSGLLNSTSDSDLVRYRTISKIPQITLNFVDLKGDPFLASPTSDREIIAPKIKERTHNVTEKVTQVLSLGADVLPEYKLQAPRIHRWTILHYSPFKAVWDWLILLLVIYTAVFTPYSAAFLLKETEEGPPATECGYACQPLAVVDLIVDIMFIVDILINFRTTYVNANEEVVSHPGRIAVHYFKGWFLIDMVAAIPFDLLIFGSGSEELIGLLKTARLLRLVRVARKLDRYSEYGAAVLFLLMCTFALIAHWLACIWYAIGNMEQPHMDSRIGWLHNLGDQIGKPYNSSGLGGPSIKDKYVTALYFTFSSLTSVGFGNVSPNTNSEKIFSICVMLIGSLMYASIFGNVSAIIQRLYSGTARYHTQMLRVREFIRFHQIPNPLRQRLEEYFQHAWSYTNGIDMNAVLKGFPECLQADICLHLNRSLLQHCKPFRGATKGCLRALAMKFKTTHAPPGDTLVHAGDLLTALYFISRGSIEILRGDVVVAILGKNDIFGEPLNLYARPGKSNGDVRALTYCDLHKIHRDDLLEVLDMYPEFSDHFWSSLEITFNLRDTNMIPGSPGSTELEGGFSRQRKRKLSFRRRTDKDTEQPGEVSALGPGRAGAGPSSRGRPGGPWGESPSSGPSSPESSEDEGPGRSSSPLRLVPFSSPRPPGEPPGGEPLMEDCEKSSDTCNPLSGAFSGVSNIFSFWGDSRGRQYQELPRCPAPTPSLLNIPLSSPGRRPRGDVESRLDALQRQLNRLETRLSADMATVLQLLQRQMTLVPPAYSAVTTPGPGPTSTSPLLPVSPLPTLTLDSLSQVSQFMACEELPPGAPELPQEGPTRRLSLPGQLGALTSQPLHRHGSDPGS

Compound | Ki (Sigma-1 receptor) | Ki (Sigma-2 receptor) | Mouse liver microsomes, MLM t½ ([1]; mouse, microsomes) | IC50 (potassium channel hERG) | neuronal phenotype (neuronal cultures) | Mouse liver microsomes, MLM t½ ([1]; mouse liver microsomes) | EC50 [2]
CC(C)COc1cc(CCC(C)(C)N2Cc3ccc(S(C)(=O)=O)cc3C2)ccc1O [compound 87] | 69 nM | 1.1 nM | 86 min | 570 nM |  |  | 
CC(C)Oc1cc(CC[C@@H](C)N2Cc3ccc(S(C)(=O)=O)cc3C2)ccc1O [compound 69] | 27 nM | 76 nM | 75 min | 9500 nM | Inactive |  | 
COc1cc(CC[C@@H](C)N2Cc3cc4c(cc3C2)OCO4)ccc1O [compound 6] |  |  |  | 980 nM | Antagonist | 20 min | 300 nM
CC(C)Oc1ccc(CC[C@@H](C)N2Cc3cc4c(cc3C2)OCO4)cc1OC(C)C [compound 40] | 7.8 nM | 8.9 nM | 6 min | 350 nM |  |  | 
COc1cc(CC[C@@H](C)N2Cc3ccc(S(C)(=O)=O)cc3C2)ccc1O [compound 68] | 100 nM |  | 152 min |  | Inactive |  | 
COc1cc(CC[C@@H](C)N2Cc3cc(Cl)c(Cl)cc3C2)ccc1O [compound 3] | 23 nM | 240 nM | 21 min |  | Neuroactive |  | 3800 nM
COc1cc(CC[C@@H](C)N2Cc3ccc(Cl)cc3C2)ccc1O [compound 1] | 31 nM | 25 nM | 11 min | 430 nM |  |  | 
CC(C)(CCc1ccc(O)c(OC(F)(F)F)c1)N1Cc2cccc(S(C)(=O)=O)c2C1 [compound 67] | 55 nM | 8.1 nM | 39 min | 44000 nM | Antagonist |  | 
COc1cc2c(cc1OC)CN(C(C)(C)CCc1ccc(F)cc1)C2 [compound 34] | 7.5 nM |  | 46 min |  | Antagonist |  | 13000 nM
CC(C)(CCc1ccc(O)c(OC(F)(F)F)c1)N1Cc2c(F)ccc(F)c2C1 [compound 55] | 360 nM | 310 nM | 34 min | 100000 nM |  |  | 
COc1cc(CC[C@@H](C)N2Cc3cccc(S(C)(=O)=O)c3C2)ccc1O [compound 65] | 1300 nM | 190 nM | 41 min | 26000 nM | Neuroactive |  | 
COC[C@H](CCc1ccc(Cl)c(Cl)c1)N1Cc2ccc(F)cc2C1 [compound 46] | 94 nM | 160 nM | 5 min | 1600 nM | Inactive |  | 
COc1cc(CC[C@@H](C)N2Cc3cccc(F)c3C2)ccc1O [compound 8] | 41 nM |  | 16 min |  | Antagonist |  | 250 to 400 nM
C[C@H](CCc1ccc(O)c(OC(C)(C)C)c1)N1Cc2ccc(S(C)(=O)=O)cc2C1 [compound 63] | 17 nM | 380 nM | 31 min | 11000 nM | Inactive |  | 
COc1cc(CCC(C)(C)N2Cc3cccc(F)c3C2)ccc1OCCO [compound 44] | 1300 nM | 140 nM | 29 min | 99 nM | Antagonist |  | 
C[C@H](CCc1ccc(Cl)c(Cl)c1)N1Cc2ccc(C(F)(F)F)cc2C1 [compound 4] | 33 nM | 2.2 nM | 40 min |  | Inactive |  | > 20000 nM
COCCN(C)C(=O)c1cccc2c1CN(C(C)(C)CCc1ccc(O)c(OC)c1)C2 [compound 86] | 10000 nM | 10000 nM | 19 min | 5100 nM |  |  | 

Compound | Ki (Sigma-1 receptor) | Ki (Sigma-2 receptor) | Mouse liver microsomes, MLM t½ ([1]; mouse, microsomes) | IC50 (potassium channel hERG) | neuronal phenotype (neuronal cultures) | Mouse liver microsomes, MLM t½ ([1]; mouse liver microsomes) | EC50 [2]
CC(C)(C)Oc1cc(CCC(C)(C)N2Cc3cccc(S(C)(=O)=O)c3C2)ccc1O [compound 66] | 130 nM | 2.6 nM | 10 min | 19000 nM | Inactive |  | 
COc1cc(CCC(C)(C)N2Cc3cc4c(cc3C2)OCO4)ccc1OCCO [compound 47] | 1000 nM |  | 91 min |  | Inactive |  | 
COc1cc(CCC(C)(C)N2Cc3cccc(C(=O)N(C)CCN(C)C)c3C2)ccc1O [compound 81] |  |  | 88 min | 10000 nM | Inactive |  | 100000 nM
Cc1ccc2c(c1)CN([C@H](C)CCc1ccc(Cl)c(Cl)c1)C2 [compound 13] |  |  | 3 min | 250 nM | Antagonist |  | 300 nM
COc1cc(CCC(C)(C)N2Cc3cccc(C(=O)N4CCN(C)CC4)c3C2)ccc1O [compound 82] |  |  | 27 min | 52000 nM | Inactive |  | 100000 nM
C[C@H](CCc1ccc(Cl)c(Cl)c1)N1Cc2cc(Cl)c(Cl)cc2C1 [compound 5] | 56 nM | 2.7 nM | 53 min |  | Inactive |  | > 20000 nM
C[C@H](CCc1ccc(OC(=O)N(C)C)c(OC(F)(F)F)c1)N1Cc2ccc(F)cc2C1 [compound 43] | 380 nM | 140 nM | 5 min | 670 nM |  |  | 
CC(C)(C#Cc1ccc2[nH]ncc2c1)N1Cc2ccc(S(C)(=O)=O)cc2C1 [compound 110] |  | 10000 nM | 15.66 min |  | Inactive |  | 100000 nM
COc1cc(CCC(C)(C)N2Cc3cccc(C(=O)N4CCOCC4)c3C2)ccc1O [compound 80] |  | 1400 nM | 45 min | 7400 nM | Inactive |  | 100000 nM
CC(=O)Oc1ccc(CCC(C)(C)N2Cc3ccc(S(C)(=O)=O)cc3C2)cc1OC(C)(C)C [compound 96] |  | 6.6 nM | <1.75 min |  | Inactive |  | 100000 nM
CC(C)Oc1cc(CC[C@@H](C)N2Cc3ccc(F)cc3C2)ccc1O [compound 37] | 9.1 nM | 140 nM | 5 min | 480 nM |  |  | 
COc1cc(CCC(C)(C)N2Cc3cccc(C(=O)N(C)CCO)c3C2)ccc1O [compound 85] | 10000 nM | 360 nM | 194 min | 33000 nM |  |  | 
C[C@H](CCc1ccc(OC(=O)N(C)C)c(OC(F)(F)F)c1)N1Cc2cccc(F)c2C1 [compound 41] | 520 nM |  | 9 min |  | Inactive/ |  | > 20000 nM
CC(C)(CCc1ccc(Cl)c(Cl)c1)N1Cc2ccc(N3CCNCC3)cc2C1 [compound 108] |  | 15 nM | 1236.31 min |  | Inactive |  | 100000 nM
COc1cc(CC[C@@H](C)N2Cc3cc(OC)c(OC)cc3C2)ccc1O [compound 7] | 42 nM | 68 nM |  |  |  | 155 min | 
COc1ccc(CCC(C)(C)N2Cc3ccc(S(C)(=O)=O)cc3C2)cc1OC [compound 101] |  | 11 nM | 84.21 min |  | Inactive |  | 100000 nM
CC(C)(CCc1ccc(Cl)c(Cl)c1)N1Cc2cccc(C(=O)N3CCNCC3)c2C1 [compound 106] |  | 240 nM | 160.43 min |  | Agonist |  | 3400 nM
